The source of these data is patent US8877889B2, “Tumor cell-killing peptides” (Industry-Academic Cooperation Foundation, Chosun University, priority 2009, dated 2014).

Assay [1] deals with HeLa cells. The assay is described as follows: Peptide-induced cell death, counting dead and survived cells under the light microscope. In kind it is cell-based. To be noted: peptides 10 μM, 20 μM, 30 μM, 10 minutes after treatment (FIG. 1B, 3A). As to the method:
(B) HeLa cells were treated with DMSO or the indicated peptides in increasing doses (10 μM, 20 μM, and 30 μM). % of cell death was determined at 10 minutes after treatment by counting the dead cells and survived cells under the light microscope.
(E) HeLa cells were transfected with substitution mutants of MTD peptide.
HeLa cells were treated with DMSO or with the indicated peptides at increasing doses (10 μM, 20 μM, or 30 μM). % cell death was determined 10 minutes after treatment by counting the dead cells and survived cells (300 cells per sample) under the light microscope.
(D) HeLa cells were treated with indicated amounts of MTD peptide for 1 hour, 2 hours, or 5 hours. % cell death was calculated by counting the dead cells and survived cells (200 to 500 cells per sample) under the light microscope. Data represent the means±SD of three independent experiments.

In assay [2] the test system is NCI-H460 cells. Briefly: Peptide-induced cell death in NCI-H460 cells. In kind it is cell-based. The note with it: 5 μM, 2 or 5 hours (FIG. 3C). As to the method:
(C) NCI-H460 cells were treated with indicated peptides for 2 hours or 5 hours. % cell death was determined as described above.

Assay [3] concerns A549 cells. Briefly: Peptide-induced cell death in A549 cells. In kind it is cell-based. To be noted: 5 μM, 1, 2 or 5 hours (FIG. 3D). As to the method:
(D) A549 cells were treated with indicated peptides for 1, 2, or 5 hours. % cell death was determined as described above.

The test system of assay [4] is HeLa cells. The assay is described as follows: Live cell images and annexin V / SYTOX Green staining of dying cells. In kind it is cell-based. How it is done:
(§1) (A) HeLa cells were treated with MTD peptides (10 μM), or TRAIL (100 ng/ml). Images were taken at the indicated times (upper panel). Jurkat cells were treated with MTD peptide (10 μM) for 10 minutes, cells were processed for TEM. Images were obtained with 4,000× magnification (lower panel). N: nucleus, M: mitochondrion.
(D) HeLa cells were treated with the MTD (5 μM) peptide with or without the pretreatment of 10 μM BAPTA-AM for 2 hours. Live cell images were serially acquired at 10-second intervals for 10 minutes and shown at the indicated times.
(A) HeLa cells were stained with FITC-conjugated Annexin V antibody at 10 minutes after DMSO or MTD treatment. Images were obtained under the confocal microscope.
(B) HeLa cells were stained with SYTOX Green 10 minutes after DMSO or MTD treatment. Images were obtained using confocal microscope.

Assay [5] deals with Jurkat cells. Briefly: Transmission electron microscopy of peptide-treated cells. In kind it is cell-based. To be noted: 10 μM for 10 minutes. As to the method:
as §1
(§2) Jurkat cells or isolated mitochondria treated with MTD peptides were harvested by centrifugation and fixed with 2.5% glutaraldehyde for 2 hours followed by washing with 0.2 M sodium cacodylate buffer (pH 7.2) three times for 10-20 minutes. Fixation step was repeated overnight and washed with 0.2 M sodium cacodylate buffer three times. Samples were dehydrated with following sequential solutions 60% ethanol, 70% ethanol, 80% ethanol, 90% ethanol, 95% ethanol, and 100% ethanol twice for 20 minutes at 4° C., and then infiltrated by propylene oxide three times for 20 minutes. Samples were embedded with the mixture of propylene oxide and epon for 6 hours. Electron microscopic images were obtained using the Hitachi H-7600 electron microscope (80 kV, Hitachi, Tokyo, Japan). Mitochondria were isolated from mouse liver as previously described (1).

For assay [6], the system named is HeLa cells. The assay is described as follows: HMGB1 release into the media, western blot. In kind it is cell-based. The note with it: 10 μM, 10 to 30 minutes, serum-free medium. How it is done: (C) HeLa cells were treated with DMSO or MTD peptides (10 μM) for 10 minutes or 30 minutes in the serum-free culture medium. After treatment, culture mediums were collected. Proteins in the conditioned media were precipitated by 2.5 vol. of methanol and 0.1 vol. of 5M NaCl. Precipitates and cell lysates were subjected to SDS-PAGE and western blot analysis with anti-HMGB1 antibody (R&D systems, Minneapolis, Minn.).
For orientation: In western blotting, separated proteins are transferred to a membrane and probed.

Assay [7] relates to HeLa cells. Briefly: Cytochrome c release by immunofluorescence. In kind it is cell-based. The note with it: HeLa cells; MTD peptide 5 μM. How it is done:
(B) Plasmids (control vector or Noxa WT fused to GFP) were transfected into HeLa cells. After 2 days in the presence of zVAD-fmk, cytochrome c was stained with anti-cytochrome c antibody. Arrows indicate the diffused cytochrome c staining (upper panel). The release of cytochrome c was analyzed by immunofluorescence in HeLa cells after treatment with MTD peptides (5 μM) (lower panel).

Assay [8] concerns Isolated mouse liver mitochondria. The assay is described as follows: Isolated mitochondria treated with peptide, transmission electron microscopy. To be noted: 10 μM peptide; 1 hour at 30° C. How it is done: (D) Isolated mouse liver mitochondria were treated with buffer (NT), MTD peptide (10 μM), or MTDmt5 peptide (10 μM), and then incubated for 1 hour at 30° C. Mitochondria were harvested by centrifugation (10,000×rpm) and then processed for transmission electron microscopy. Images (upper panel) were obtained with 7,000× magnification, and the relative mitochondrial sizes (lower panel) were calculated by measuring the diameters of about 40 individual mitochondria.
as §2

Assay [9] deals with HeLa cells. The assay is described as follows: Caspase activation, western blot of cell lysates. In kind it is cell-based. The note with it: 5 μM peptide. How it is done: (E) After treatment with the MTD peptide, MTDmt4, or MTDmt5 (5 μM) in HeLa cells, cell lysates were prepared at indicated times. Equal amounts of proteins were subjected to the SDS-PAGE and blotted onto PVDF membrane. After blocked with 5% nonfat milk in TBST (10 mM Tris-HCl, pH 7.5, 100 mM NaCl and 0.1% Tween-20), the membrane was probed with anti-caspase-3 (SantaCruz Biotechnology, Inc., Santa Cruz, Calif., USA), anti-caspase-8 (Cell signaling technology, Beverly, Mass., USA), anti-caspase-9 (SantaCruz Biotechnology, Inc., Santa Cruz, Calif.), anti-XIAP (Upstate Biotechnology, Dundee, United Kingdom), or anti-Bid (home-made) antibodies. Anti-actin antibody (Chemicon International, Inc., Temecula, Calif., USA) was used as equal loading control.

Assay [10] has as its system HeLa cells. Briefly: Measurement of intracellular calcium with Fluo-4-AM. In kind it is cell-based. The note with it: 3 μM peptide. How it is done: (A-C) HeLa cells were loaded with 3 μM Fluo-4-AM for 30 minutes and then treated with 3 μM of indicated peptides (A: MTD, B: MTDmt3, C: MTDmt5). Fluorescence images and bright-field images were obtained with the laser scanning confocal microscope at 5-second intervals for 5 minutes. Relative fluorescence intensities (F/F0) at two region-of-interests (ROI 1 and 2) were measured at 5-second intervals for 5 minutes.
(E-G) HeLa cells were pretreated in calcium free KRB media alone (E), in KRB media with 10 μM 2-APB and 20 μM Ryanodine (F), or in KRB media with freshly made 30 μM CsA (G) for 2 hours. HeLa cells were then loaded with 3 μM Fluo-4-AM for 30 minutes and treated with 3 μM of MTD peptide. Images were obtained with the laser scanning confocal microscope at 5-second intervals for 5 minutes. Relative fluorescence intensities (F/F0) at two region-of-interests (ROI 1 and 2) were measured at 5-second intervals for 5 minutes.
For Ca^2+ measurements in the cytosol, HeLa cells were cultured in an Lab-Tek™ Chamber glass slide and loaded with Fluo-4-AM (Fluo-4-acetoxymethyl ester) at a final concentration of 3 μM for 30 minutes, followed by washing with PBS (Phosphate buffered saline) at pH 7.4 and the addition of fresh Ca^2+-free Krebs-ringer modified buffer (KRB: 125 mM NaCl, 5 mM KCl, 1 mM Na3PO4, 1 mM MgSO4, 5.5 mM glucose, and 20 mM HEPES, pH 7.4, at 37° C.) containing the indicated peptides. Time-lapse images were obtained at 488 nm excitation with the Argon laser scanning confocal microscope (Leica TCS SP5 Microsystems, Mannheim, Germany) at 10-second intervals for 5 minutes to visualize Fluo-4-AM.
For orientation: Calcium flux is commonly read through the fluorescence of an indicator in the cells.

The test system of assay [11] is mPT pore. The assay is described as follows: Cobalt-quenched calcein assay. In kind it is cell-based. To be noted: HeLa cells; within 5 minutes after treatment. As to the method: (A) HeLa cells were loaded with 1 μM Calcein-AM and 2 mM cobalt for 15 minutes, and the mitochondria were stained by adding 25 μM MitoTracker for 2 minutes. The representative image of the calcein signals (green) that were overlapped with MitoTracker (Red) was shown.
(B) Time-lapse images of calcein and MitoTracker signals from HeLa cells that were not treated (top panel) or treated (bottom panel) with MTD peptide were obtained at 10-second intervals for 5 minutes. The representative images at the indicated time points were shown.
HeLa cells were loaded with 1 μM Calcein-AM and 2 mM cobalt in serum-free DMEM for 15 minutes, followed by adding 25 μM MitoTracker for 2 minutes to stain the mitochondria. Then, HeLa cells were briefly washed with HBSS (Hank's Buffered Salt Solution) and were treated with MTD peptide in calcium-free media containing 10% FBS (Fetal bovine serum). Time-lapse images were obtained at 10-second intervals for 10 minutes.

Entries after “also recorded” stand apart in the source; their conditions may differ.

With RRRRRRRRGRQKLLNLISKLF [MTD], in assay [1], the “cell death-inducing activity (% of cell death)” value is on record as “comparable cell death-inducing activity to NoxaBH3MTD peptide”. In addition, in [2], the “susceptibility of cells to peptide” value was “very susceptible”. For the same sequence, in assay [3], the “susceptibility of cells to peptide” value is reported as “very resistant”. In [4] (10 minutes after treatment), the “annexin V and SYTOX Green staining” value is “stained with annexin V and SYTOX Green”. The “morphology of dying cells” value in assay [4] (MTD peptide 10 μM or TRAIL 100 ng/ml (FIG. 2A, 7A, 7B)) is given as “bubble-like structures of dying cells; also recorded: swollen cytoplasmic membrane”. Moreover, the “ultrastructural changes by transmission electron microscopy” value in [5] was “swollen mitochondria, the enlarged nucleus and cell membrane swelling; also recorded: swelled mitochondria”. The “HMGB1 release to the media” value in assay [6] was “significantly released to the media”. Moreover, the “cytochrome c release from the mitochondria to the cytosol” value in [7] is “not released; also recorded: neither cytochrome c release”. Also, in assay [8], the “morphological changes or mitochondrial size changes of isolated mitochondria” value is given as “did not show any morphological changes or mitochondrial size changes; also recorded: no morphological changes”. Also, the caspase activation entry in assay [9] was “not activated”. Also, in assay [10], the “cytosolic calcium level change” value is given as “substantially increased” and the “time to cytosolic calcium increase after treatment” value is 1 to 3 min. Also, the “mitochondrial calcein signals (mPT pore opening)” value in assay [11] is listed as “significantly decreased”.
